Reference: patent publication EP4201929A1, “QUINOXALINE THIOREDOXIN REDUCTASE INHIBITORS” (geneXplain GmbH, priority 2021, dated 2023)
pIC50: −log10 of the molar value.

Legend:
BT549 = experiment: Growth suppression, cancer cell line panel (resazurin); format: cell-based; conditions: BT549 breast, 48 hours
Procedure: (§1) Breast, colon, ovarian, cervical, liver and lung carcinoma cell lines were grown in DMEM supplemented with 10% FBS, and antibiotics were cultured at 37 °C and 5% CO2. Osteosarcoma, melanoma, lymphoma, neuroblastoma and leukemia cell lines were cultured in RPMI 1640 with 10% FBS and antibiotics. An oxygen concentration of 0.3% was obtained by flushing a sealed box containing the cells with premixed gas composed of 95% nitrogen (N2) and 5% CO2 (AGA AB, Sweden). To obtain an oxygen concentration of 0.05%, the cells were flushed with the premixed gas continuously throughout the experiment.
(§2) Cells were grown in 96-well plates at a density of 3000 cells per well with or without doxycycline and treated with compounds. After 48 hours of incubation the proliferative cell reagent resazurin (Thermo Fisher Scientific) was added to the cells. The degree of resazurin reduction, which reflects cell viability, was measured by microplate reader by monitoring the absorbance at 570 nm and 600 nm, according to the manufacturer.
(§3) Growth suppression by the soluble compound 1d*HCl in a panel of 27 cancer cell lines. The panel of cancer cell lines, including carcinomas of breast (MDA-MB231, SKBR3, T47D, MCF7; BT549, BT20, MDA-MB468), colon, (SW480, RKO, HT29, HCT116) ovarian (OVCAR3, OVCAR4, OVCAR8), cervical (SW756, C33A), liver (HEPG2) and lung (H23), osteosarcoma (SJSA and U2OS), melanoma (ME180), lymphoma (Raji, HDLM2), neuroblastoma (SKNAS, IMR32) and leukemia (NB4, K562) were treated with increasing concentrations of 1d*HCl: 0.4; 0.8; 1.6; 3.2; 6.4; 12.8; 25.6 µM in 96-well plates. After 48 hours of incubation the proliferative cell reagent resazurin was added to the cells. The degree of resazurin reduction, which reflects cell viability, was measured by microplate reader by monitoring the absorbance at 570 nm and 600 nm, according to the manufacturer, and the IC50 and AUC (area under curve) were determined (Table 2). As could be seen in Table 2, 1d*HCl suppressed the growth of cancer cell lines of a different origin, including carcinomas, osteosarcomas, melanoma, lymphoma, leukemia and neuroblastoma. These findings open up a possibility of the application of the present invention in anti-cancer therapy in a broad range of tumor types. Table 2: a) Breast cancer

HDLM2 = experiment: as above; format: cell-based; conditions: HDLM2 lymphoma, 48 hours
Procedure: as §1, §2, §3

IMR32 = experiment: as above; format: cell-based; conditions: IMR32 neuroblastoma, 48 hours
Procedure: as §1, §2, §3

K562 = experiment: as above; format: cell-based; conditions: K562 leukemia, 48 hours
Procedure: as §1, §2, §3

NB4 = experiment: as above; format: cell-based; conditions: NB4 leukemia, 48 hours
Procedure: as §1, §2, §3

OVCAR4 = experiment: as above; format: cell-based; conditions: OVCAR4 ovarian, 48 hours
Procedure: as §1, §2, §3

SJSA = experiment: as above; format: cell-based; conditions: SJSA osteosarcoma, 48 hours
Procedure: as §1, §2, §3

SKNAS = experiment: as above; format: cell-based; conditions: SKNAS neuroblastoma, 48 hours
Procedure: as §1, §2, §3

T47D = experiment: as above; format: cell-based; conditions: T47D breast, 48 hours
Procedure: as §1, §2, §3

U2OS = experiment: as above; format: cell-based; conditions: U2OS osteosarcoma, 48 hours
Procedure: as §1, §2, §3

MCF7 cells = experiment: Apoptosis detection by FACS (Annexin V staining); format: cell-based; conditions: 2 µM, 24h treatment
Procedure: Cells were placed on 12-well plate at a density of 30000/cm^2 and treated with compounds. After 24h incubation cells were harvested by trypsinization, fixed with 70% ethanol, treated with RNase A (0.25 mg/ml) and stained with Annexin V according to manufacturer's instructions (Thermo Fisher Scientific). Samples were analyzed on a Becton Dickinson FACScan. Data were analyzed by the CellQuest software, version 3.2.1.
To find out whether the growth suppression by 1d*HCl is due to triggering cell death by apoptosis, we performed the Annexin V-mediated staining of phosphatidylserine, exposed on surface of cells undergoing apoptotic cell death. We detected Annexin V-positive cells using FACS.

GR = GR (Homo sapiens, UniProt P00390); experiment: GR enzymatic activity measurement in vitro; format: biochemical; set-up: purchased Sigma; conditions: recombinant purified enzyme in vitro
Procedure: TrxRl enzyme was recombinantly produced with high Sec contents in a specific Release Factor 1-depleted E. coli strain and purified as previously described (Arnér ESJ, Holmgren A, in Current Protocols in Toxicology, Maines M, Costa L, Reed D, Sassa S, Eds. (John Wiley & Sons, Inc., New York, 2000), pp. 7.4.1-7.4.14). TrxRl and GSR (Sigma) recombinant enzyme assays were performed in a reaction buffer containing 50 mM Tris pH 7.5 with 2 mM EDTA and 0.1 mg/mL bovine serum albumin as described previously (Arnér ESJ, Holmgren A, in Current Protocols in Toxicology, Maines M, Costa L, Reed D, Sassa S, Eds. (John Wiley & Sons, Inc., New York, 2000), pp. 7.4.1-7.4.14). Briefly, assays were performed in triplicate using 96-well plates, with activity inferred from absorbance changes using a Spectra Max plate reader. Results of recombinant enzyme assays were normalized to DMSO and to no enzyme controls.
Glutathione reductase inhibition assay was performed according to (S. Busker, W. Qian, M. Haraldsson, B. Espinosa, L. Johansson, S. Attarha, I. Kolosenko, J. Liu, M. Dagnell, D. Grandér, E.S.J. Arnér, K. PokrovskajaTamm, B.D.G. Page. Irreversible TrxRl inhibitors block STAT3 activity and induce cancer cell death, Sci. Adv., 6 (2020), 10.1126/sciadv.aax7945). 5 or 10 µM compound was incubated with 175 µM GSH in TE buffer. […]

Chain of GR (P00390 44-522): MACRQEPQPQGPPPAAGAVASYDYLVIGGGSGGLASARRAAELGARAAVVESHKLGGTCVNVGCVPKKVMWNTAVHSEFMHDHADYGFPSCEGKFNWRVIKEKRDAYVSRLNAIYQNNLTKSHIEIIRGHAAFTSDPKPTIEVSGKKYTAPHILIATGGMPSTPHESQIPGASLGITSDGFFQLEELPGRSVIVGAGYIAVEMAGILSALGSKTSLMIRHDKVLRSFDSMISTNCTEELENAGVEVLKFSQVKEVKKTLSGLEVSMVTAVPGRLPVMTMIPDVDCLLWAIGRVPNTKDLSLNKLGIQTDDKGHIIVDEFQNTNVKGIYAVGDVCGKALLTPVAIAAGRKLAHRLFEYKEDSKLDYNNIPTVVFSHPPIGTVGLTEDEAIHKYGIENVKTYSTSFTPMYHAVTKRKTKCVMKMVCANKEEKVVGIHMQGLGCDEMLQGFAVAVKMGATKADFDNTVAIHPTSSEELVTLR

Cl.N#Cc1c(-c2cccnc2)[n+]([O-])c2cc(F)c(N3CCOCC3)cc2[n+]1[O-] [1d*HCl, 6-Fluoro-7-(morpholin-4-yl)-3-(pyridin-3-yl)quinoxaline-2-carbonitrile-1,4-dioxide hydrochloride]
AUC (BT549; area under curve, 0.4-25.6 µM): 2,52
pIC50 (BT549; Homo sapiens, BT-549, resazurin): 5.77
AUC (HDLM2; area under curve, 0.4-25.6 µM): 4,68
pIC50 (HDLM2; Homo sapiens, HDLM-2, resazurin): 5.90
pIC50 (IMR32; Homo sapiens, IMR-32, resazurin, read-out: ICso): 5.29
AUC (IMR32; area under curve, 0.4-25.6 µM): 6,40
pIC50 (K562; Homo sapiens, resazurin): 5.53
AUC (K562; area under curve, 0.4-25.6 µM): 4,39
IC50 (NB4; resazurin): variable
AUC (NB4; area under curve, 0.4-25.6 µM): 25,4
pIC50 (OVCAR4; Homo sapiens, OVCAR-4, resazurin): 5.80
AUC (OVCAR4; area under curve, 0.4-25.6 µM): 3,7
pIC50 (SJSA; resazurin, read-out: ICso): 5.39
AUC (SJSA; area under curve, 0.4-25.6 µM): 4,96
pIC50 (SKNAS; Homo sapiens, SK-N-AS, resazurin, read-out: ICso): 5.33
AUC (SKNAS; area under curve, 0.4-25.6 µM): 7,73
pIC50 (T47D; Homo sapiens, resazurin): 5.56
AUC (T47D; area under curve, 0.4-25.6 µM): 3,93
pIC50 (U2OS; Homo sapiens, resazurin, read-out: ICso): 5.98
AUC (U2OS; area under curve, 0.4-25.6 µM): 2,10
Annexin V-positive cells (MCF7 cells): induced Annexin V-positive cells statistically significantly
GR activity (GR): did not inhibit GR activity
